Assay results as given in patent publication US20220347186A1, “METHODS AND COMPOSITIONS FOR TREATING SICKLE CELL DISEASE AND THALASSEMIA” (THE UNIVERSITY OF CHICAGO, priority 2019, published 2022).
Entries after “also recorded” stand apart in the source; their conditions may differ.

Legend:
HEL cells [1] = test: Cell growth and viability of HEL cells with BET inhibitor; type: cell-based; conditions: 200 nM vs DMSO control, days 0-3
Procedure: (§1) K562, HEL, and HL-60 cells were cultured in RPMI 1640 medium supplemented with 10% FBS. TF-1 cells were cultured in RPMI 1640 medium supplemented with 10% FBS and 4 ng/mL GM-CSF. Before treatment, TF-1 cells were washed 4× with RPMI 1640 without supplements, and cultured in RPMI 1640 medium with 10% FBS but no GM-CSF for 24 hours. 4 ng/mL GM-CSF or 3 units/mL EPO were added at the time of treatment set up. K562, HEL, and HL-60 cells were cultured as normal until treatment set up. JQ1 (Sigma-Aldrich, SML1524), CPI-0610 (Selleck Chemicals, S7853), and PLX51107 (MedChemExpress, HY-111422) were dissolved in DMSO to 10 mM concentration and stored in −80° C. All three inhibitors were applied to cells at 200 nM, with parallel DMSO treatment (0.002%) as control. JQ1 and PLX51107 were added to cell culture at day 0 without additional treatments up to day 5. CPI-0610 was reapplied to the cells on a daily basis.

HL-60 cells = test: RT-qPCR quantification of hemoglobin gene expression in HL-60 cells; type: cell-based, human; conditions: 200 nM
Procedure: as §1, with “CPI-0610 was reapplied to the cells on a daily basis.” left out
(§2) cDNA libraries for mRNAs were made from 1 μg input RNA using High-Capacity cDNA Reverse Transcription Kit (ThermoFisher, 4368814). Gene expressions were quantified using Power SYBR Green PCR Master Mix (Thermofisher, 4367659). For microRNAs, cDNA libraries were made with Taqman Advanced miRNA cDNA Synthesis Kit (Thermofisher, A28007). miR-15A and miR-16-1 were quantified using the Taqman Advanced miRNA Assays (ThermoFisher, A25576) specific to hsa-miR-15a-5p (assay ID: 477858_mir) and hsa-miR-16-5p (assay ID: 477860_mir).

K562 cells [2] = test: RNA-seq gene expression in K562 cells; type: cell-based, human
Procedure: as §1
Sample RNA libraries were prepared using the KAPA mRNA HyperPrep Kit (Roche, KK8580) with 1 μg input RNA and submitted for sequencing. Raw reads in fastq format were aligned to the hg19 reference genome using HISAT2(38) with Gencode gene and transcript annotation (GRCh37.p13)(39). Gene expression was quantified and compared by tools in the Cuffliks package (40). GO analysis and term clustering was performed using g:Profiler and Cytoscape following the protocols published by Reimand et al (41).

K562 cells [3] = test: Sanger sequencing of HBG1/2 cDNA, HBG1 vs HBG2 ratio, K562 cells; type: cell-based, human; conditions: DMSO vs JQ1 treatment, sequencing peak heights
K562 cells [4] = test: Benzidine-hematoxylin staining for hemoglobin producing cells; type: cell-based; conditions: 200 nM
Procedure: as §1
K562 cells were counted, and 200,000 cells were collected by spinning at 400 g. […]
At least three randomly selected fields of stained cells were imaged at 40× magnification. […] The numbers of benzidine-positive cells and the intensity of benzidine staining were quantified in the benzidine channel, whereas the total cell number and abnormal nuclear morphology were quantified in the hematoxylin channel. Results of all fields from each slide were summed for the final quantification.

HEL cells [5] = test: RT-qPCR quantification of hemoglobin gene expression in HEL cells; type: cell-based, human; conditions: 200 nM
Procedure: as §1, §2

[6] = test system: β-globin locus in K562 cells; test: 3C-qPCR interaction frequency at the β-globin locus in K562 cells; type: cell-based, human
Procedure: as §1
Methods for chromatin conformation capture (3C) qPCR was adapted from Hagège et al. (42). Briefly, 10 million cells were collected and fixed with 1% formaldehyde for 5 minutes in PBS with 10% FBS for 5 minutes, then quenched by 124 mM glycine on ice. The fixed cells were then lysed and digested by 400 units of EcoRI (NEB, R3101). Small aliquots of the samples were taken before and after the digestion as digestion controls. Following the digestion, the samples were diluted and ligated by T4 DNA ligase (NEB, M0202). The samples were then reverse-crosslinked, and DNA was purified by phenol-chloroform extraction. The digestion efficiency, sample purity, and DNA concentration of each sample were assessed by qPCR to exclude low-quality samples prior to the 3C quantification. Calculated quantity of each primer pairs was normalized as number of templates per million B13 control site template. Additionally, because the Gg primer anneals to both HBG1 and HBG2 fragments, while the Ag primer anneals to only HBG2 fragment, the Gg primer signal was subtracted by Ag primer signal to quantify the HBG1 interaction frequency. […]

[7] = test system: β-globin locus in TF-1 cells; test: 3C-qPCR interaction frequency at the β-globin locus in TF-1 cells; type: cell-based, human
Procedure: as §1, with “JQ1 and PLX51107 were added to cell culture at day 0 without additional treatments up to day 5. CPI-0610 was reapplied to the cells on a daily basis.” left out
Methods for chromatin conformation capture (3C) qPCR was adapted from Hagège et al. (42). […] The digestion efficiency, sample purity, and DNA concentration of each sample were assessed by qPCR to exclude low-quality samples prior to the 3C quantification. Calculated quantity of each primer pairs was normalized as number of templates per million B13 control site template. Additionally, because the Gg primer anneals to both HBG1 and HBG2 fragments, while the Ag primer anneals to only HBG2 fragment, the Gg primer signal was subtracted by Ag primer signal to quantify the HBG1 interaction frequency. […]

TF-1 cells = test: RT-qPCR quantification of gene expression in TF-1 cells; type: cell-based, human
Procedure: as §1, §2

BET proteins = conditions: BRD2/BRD3/BRD4/BRDT, literature refs 17, 18; cited from earlier work
HEL cells [8] = test: Sanger sequencing of HBG1/2 cDNA, HBG1 vs HBG2 ratio, HEL cells; type: cell-based, human; conditions: DMSO vs JQ1 treatment, sequencing peak heights
[9] = TF-1 cells, both proliferation and erythropoietic conditions

Compound: Cc1sc2c(c1C)C(c1ccc(Cl)cc1)=N[C@@H](CC(=O)OC(C)(C)C)c1nnc(C)n1-2 [JQ1]
- Cell growth (HEL cells [1]): grow slower; also recorded: significantly suppress cell growth by Day 3
- Cell viability (HEL cells [1]): unaffected; also recorded: did not affect cell viability
- HBB, HBG1/2 and HBE1 expression (HL-60 cells): had no effect
- Expression of heme biosynthesis pathway genes, notably ALAS2 (K562 cells [2]; RNA-seq): upregulated
- Expression of α- and β-globin hemoglobin genes (K562 cells [2]; RNA-seq): increased the expression of all α- and β-globin hemoglobin genes except HBB and HBD
- GATA1 expression (K562 cells [2]; RNA-seq): did not change
- HEMGN expression (K562 cells [2]; RNA-seq): significantly suppresses
- NR2F2 expression (K562 cells [2]; RNA-seq): did not change
- Differentiation (GO analysis of up- and down-regulated genes) (K562 cells [2]; day 3 and day 5): specifically promotes erythroid, but not myeloid differentiation
- Transcriptome (gene expression) change (K562 cells [2]; day 3 and day 5, JQ1 vs DMSO): substantially changed the transcriptome
- Ratio of HBG1 vs. HBG2 (K562 cells [3]): no significant changes
- Percentage of hemoglobin producing cells (benzidine-hematoxylin staining) (K562 cells [4]; day 3): ~6%
- Percentage of hemoglobin producing cells (benzidine-hematoxylin staining) (K562 cells [4]; day 5): over 10%
- HBB expression (HEL cells [5]): suppressing
- HBE1 expression (HEL cells [5]): significantly upregulated
- HBG1/2 expression (HEL cells [5]): significantly upregulated
- Interaction frequency of 5′BG (5′BGLT3 fragment) with the HBG1/2 region and the LCR [6]: significantly increase
- Increase in interaction frequency between the LCR and the HBG promoter region ([6]; 72 hours of JQ1 treatment): over 2 fold
- Interaction frequency between the LCR and the rest of the β-globin locus ([6]; 72 hours of JQ1 treatment): slight increases
- Interaction with LCR across the entire locus, except at the HBE1 promoter region ([7]; both proliferative and erythropoietic conditions, 72 hours): modest decrease
- Interaction between 5′BG and upstream fragments ([7]; more prominent in the erythropoietic condition): slight decrease
- miR-15A expression (TF-1 cells; TF-1 cells): significantly upregulated
- miR-16-1 expression (TF-1 cells; TF-1 cells): significantly upregulated
- HBB expression (TF-1 cells; TF-1 cells treated with both EPO and JQ1): significantly decreased
- HBE1 expression increase (TF-1 cells; TF-1 cells treated with both EPO and JQ1, day 5): over 200 fold
- HBB expression (TF-1 cells; TF-1 cells under proliferative condition, 200 nM): not observed
- HBE1 expression (TF-1 cells; TF-1 cells, 200 nM, without EPO): only upregulated
- BCL11A expression (TF-1 cells; TF-1 cells, RT-qPCR): significantly suppressed
- MYB expression (TF-1 cells; TF-1 cells, RT-qPCR): significantly suppressed
- HEMGN expression (TF-1 cells; TF-1 cells, RT-qPCR, especially under erythropoietic condition): significantly suppressed
- Proportion of HBB transcripts relative to total β-globin transcripts (TF-1 cells; [9]): significantly decreased
- Proportion of HBE1 transcripts relative to total β-globin transcripts (TF-1 cells; [9]): increased
- Affinity among BET family members (BET proteins): higher affinity for BRD3 and BRD4
- Ratio of HBG1 vs. HBG2 (HEL cells [8]): no significant changes
